Experiments:
Caspase = test: One hour kinetic assay detection of Caspase using U-937 cells; type: cell-based; conditions: above the 50% DMSO concentration; due to non-specific signal from uninduced cell controls
Description: (§1) To initiate such assays, 25 μl of Caspase CellProbe Reagent™ (Beckman Coulter) was added to a suspension of 1×10^5 U-937 cells in 110 μl of culture medium in a 96-well microtiter plate. Cells were incubated for one hour, and had been either uninduced or induced by prior incubation in the presence of 2.5 μM Camptothecin. The final concentration of the Caspase CellProbe Reagent™ was 30 μM.
The results shown in FIG. 4 is of kinetic signal from twenty fluorescence readings of the one hour assay. In FIG. 4, lines containing a diamond (♦) denote unmixed samples; lines containing boxes (▪) and appearing as thick lines denote mixed samples.

HeLa cells [1] = test: CellProbe assay in HeLa cells with betaine (Example 4); type: cell-based; conditions: HeLa 1.5×10^4/well, 30 μM CellProbe substrate; particularly if unmixed
Description: For such experiments, HeLa cells are seeded overnight at 1.5×10^4/well and provided with 30 μM CellProbe substrate (final concentration).

HeLa cells [2] = test: CellProbe assay in HeLa cells with betaine (Example 5); type: cell-based; conditions: betaine 2.0-2.4 M; HeLa 7.5×10^3/well, 25 μM CellProbe substrate; particularly if unmixed
Description: The enhanced detection sensitivity of the assays of the present invention resulting from the use of Betaine (at 2.0, 2.1, 2.2, 2.3, 2.4 M) is shown in FIG. 8. For such experiments, HeLa cells are seeded overnight at 7.5×10^3/well and provided with CellProbe substrate (25 μM final concentration). […] Results of similar assays conducted with 35% DMSO are shown for comparison.

aminopeptidase = conditions: concentrations of approximately 10 mM; cited from earlier work
Caspase 6 [3] = test: Caspase 6 CellProbe assay in HeLa cells (Example 6); type: cell-based; conditions: HeLa 1.5×10^4 cells/well, 30 μM CellProbe, 1 hour
Description: To initiate such assays, Caspase CellProbe Reagent™ (Beckman Coulter) is added to a suspension of 1.5×10^4 HeLa cells/well in a 96-well microtiter plate. The final concentration of the Caspase CellProbe Reagent™ was 30 μM. Reaction is for 1 hour and is as described in Example 1.

Caspase 6 [4] = test: Caspase 6 CellProbe assay for apoptosis using HeLa cells (Example 2); type: cell-based
Description: To initiate 110 such assays, Caspase CellProbe Reagent™ (Beckman Coulter) is added to a suspension of 1.5×10^4 HeLa cells/well in a 96-well microtiter plate. The final concentration of the Caspase CellProbe Reagent™ was 30 μM. Reaction is for 1 hour.
In FIG. 5, and in the examples below, the Fluorescence Ratio is defined as: Fluorescence Ratio=Induced Fluorescence/Uninduced Fluorescence where the Induced Fluorescence is the difference between the 1 Hour Value and the Start of Assay Value, and the Uninduced Fluorescence is the difference between the 1 Hour Value and the Uninduced Start Value. In FIG. 5, data are plotted as a function of potassium glutamate or DMSO concentration. The dark columns indicate results obtained upon mixing the samples, while the light columns indicate results obtained when the samples were not mixed after the addition of glutamate.

Caspase 3 = Caspase 3 CellProbe assay with U-937 suspension cells; type: cell-based
Description: as §1
(§2) In the Figures, the 5 series of columns reflect results obtained with no glycerol, 20% glycerol, 30% glycerol, 40% glycerol and 50% glycerol. The individual columns (left to right) within each data series reflect results for: unmixed sample—induced; unmixed sample—uninduced; mixed sample—induced; and mixed sample—uninduced.

Caspase 6 [5] = test: Caspase 6 CellProbe assay with U-937 suspension cells; type: cell-based
Description: as §1, §2

Caspase 1 = Caspase 1 CellProbe assay with U-937 suspension cells; type: cell-based
Description: as §1, §2

[6] = various optimal glycerol concentrations (20-50%), U-937 cells, 30 μM CellProbe, 1 hour

SMILES: C[S+](C)[O-] [DMSO, dimethyl sulfoxide]
- signal ratio (induced/uninduced) (Caspase): signal ratio decrease

SMILES: C[N+](C)(C)CC(=O)O [betaine]
- assay sensitivity (HeLa cells [1]): improved assay sensitivity
- assay sensitivity (HeLa cells [2]): improved assay sensitivity

SMILES: [Ca+2].[Cl-].[Cl-] [calcium chloride]
- effect on enzyme reaction with the assay compound (aminopeptidase): inhibitory

SMILES: OCCO [ethylene glycol]
- assay performance (detection sensitivity) (Caspase 6 [3]): improved assay performance

SMILES: N[C@@H](CCC(=O)[O-])C(=O)[O-].[K+].[K+] [glutamate, potassium glutamate]
- detection of Caspase 6 activity (Caspase 6 [4]; glutamate 1.5 M, 1.7 M, 1.8 M, 2.0 M, HeLa cells, 1 hour): dramatic improvement
- assay sensitivity (Caspase 6 [4]; inclusion of glutamate, particularly if unmixed): improved assay sensitivity

SMILES: CCOC(=O)CC[C@H](N)C(=O)OCC [glutamic acid diethyl ester]
- detection sensitivity (Caspase 6 [3]): did not enhance detection sensitivity

SMILES: OCC(O)CO [glycerol]
- relative signal, Caspase 3 (Caspase 3; raising the glycerol concentration from 0 to 50%, greater magnitude when unmixed): significant relative signal increase
- detection of Caspase 3 activity (Caspase 3; [6]): dramatic improvement
- effect on Caspase 6 assay (Caspase 6 [5]; added unmixed glycerol ~50%): deleterious effect
- detection of Caspase 6 activity (Caspase 6 [5]; [6]): dramatic improvement
- effect on Caspase 1 assay (Caspase 1; added unmixed glycerol ~40%): deleterious effect
- detection of Caspase 1 activity (Caspase 1; [6]): dramatic improvement

SMILES: O=C(O)[C@@H]1CCCN1 [proline]
- detection sensitivity (Caspase 6 [3]): did not enhance detection sensitivity

SMILES: O=C[C@H](O)[C@H](O)[C@H](O)CO [ribose]
- assay performance (detection sensitivity) (Caspase 6 [3]): improved assay performance

SMILES: OC[C@@H](O)[C@H](O)CO [threitol]
- assay performance (detection sensitivity) (Caspase 6 [3]): improved assay performance

SMILES: OC[C@H]1O[C@H](O[C@H]2O[C@H](CO)[C@@H](O)[C@H](O)[C@H]2O)[C@H](O)[C@@H](O)[C@@H]1O [trehalose]
- assay performance (detection sensitivity) (Caspase 6 [3]): improved assay performance

SMILES: C[N+](C)(C)[O-] [trimethylamine N-oxide]
- assay performance (detection sensitivity) (Caspase 6 [3]): improved assay performance

Reference: patent US7026111B2, “Methods and reagents for improved cell-based assays” (Beckman Coulter, Inc., priority 2001, dated 2006)
